Results: article PMC5466598, “Synthesis, Chemical Characterization and Multiscale Biological Evaluation of a Dimeric-cRGD Peptide for Targeted Imaging of αVβ3 Integrin Activity” (Scientific Reports, 2017)
Read-outs that look alike come from different tables or passages of the source.

Experiments:
α V β 3 receptor = details: cited from earlier work; for Kd: comparison values quoted in discussion, no reference given, read-out: binding affinity (Kd); for k off: dissociation from α V β 3 receptor
[1] = In vivo stability / metabolism (HPLC of urine and feces); set-up: species or system Lewis rats
Method: Following dynamic PET-CT imaging, both urine and feces samples were collected to assess radiotracer’s metabolism and excretion route. The urine samples were collected at 90 min post injection by manual void, mixed at 1:1 ratio (v/v) with 50% CH3 CN and centrifuged at 5000 rpm. The supernatant was collected, analyzed by HPLC (C18 column, flow 1 mL/min, CH3 OH/H2 O, 5/95, v/v), and chromatograms compared to reference samples of (7) and ^64Cu-acetate. Feces samples were collected at 90 min post injection, suspended in 50% CH3 CN, homogenized and centrifuged at 5000 rpm. The supernatant was filtered and analyzed by RP-HPLC.

[2] = Biodistribution by gamma well counting at 90 min post-injection; assay type: in vivo, Lewis rats; details: Lewis, rat, iv, total radioactivity, 90 min after intravascular injection
Method: To assess blood clearance and organ uptake dynamic in vivo PET-CT imaging was performed followed by image processing and analysis. Lewis rats (n = 6, Harlan Inc.) were anesthetized with 2% isoflurane, the neck area was shaved and a jugular vein cut-down procedure was performed to insert a PE-50 […] catheter for radiotracer injection. Animals were then placed in supine position on the polyacrylic imaging bed of a small animal dedicated PET-CT scanner (Inveon, Siemens Healthcare, USA). At the time of PET acquisition, animals were injected with ~22.2 MBq of (7) via the jugular vein catheter over 30 s followed by bolus infusion of 0.2 mL sterile saline. Animals underwent 60 min dynamic PET imaging (15% energy window centered at 511 keV) followed by anatomical X-ray CT imaging (80 keV, 500 μA, 100 μm spatial resolution).
For biodistribution studies, all animals were euthanized at 90 min post-injection and selected organ samples were collected for gamma well counting analysis. All collected sections were weighed and the tissue radioactivity was measured with Wizard^2 gamma well counter (Perkin-Elmer, USA). Measured ^64Cu activity was corrected for background, decay time, and tissue weight.

[3] = biological target: T1, αVβ3 integrin on human umbilical vein endothelial cells (HUVEC) (human (endogenous in HUVEC)), P06756; assay: flow cytometry on cells; HUVEC pretreated with Mn2+ (20 μM) for 10 min, washed, then (8) 0-200 nM for 1 h at room temperature; details: remark: other sources report otherwise
T1 chain 1: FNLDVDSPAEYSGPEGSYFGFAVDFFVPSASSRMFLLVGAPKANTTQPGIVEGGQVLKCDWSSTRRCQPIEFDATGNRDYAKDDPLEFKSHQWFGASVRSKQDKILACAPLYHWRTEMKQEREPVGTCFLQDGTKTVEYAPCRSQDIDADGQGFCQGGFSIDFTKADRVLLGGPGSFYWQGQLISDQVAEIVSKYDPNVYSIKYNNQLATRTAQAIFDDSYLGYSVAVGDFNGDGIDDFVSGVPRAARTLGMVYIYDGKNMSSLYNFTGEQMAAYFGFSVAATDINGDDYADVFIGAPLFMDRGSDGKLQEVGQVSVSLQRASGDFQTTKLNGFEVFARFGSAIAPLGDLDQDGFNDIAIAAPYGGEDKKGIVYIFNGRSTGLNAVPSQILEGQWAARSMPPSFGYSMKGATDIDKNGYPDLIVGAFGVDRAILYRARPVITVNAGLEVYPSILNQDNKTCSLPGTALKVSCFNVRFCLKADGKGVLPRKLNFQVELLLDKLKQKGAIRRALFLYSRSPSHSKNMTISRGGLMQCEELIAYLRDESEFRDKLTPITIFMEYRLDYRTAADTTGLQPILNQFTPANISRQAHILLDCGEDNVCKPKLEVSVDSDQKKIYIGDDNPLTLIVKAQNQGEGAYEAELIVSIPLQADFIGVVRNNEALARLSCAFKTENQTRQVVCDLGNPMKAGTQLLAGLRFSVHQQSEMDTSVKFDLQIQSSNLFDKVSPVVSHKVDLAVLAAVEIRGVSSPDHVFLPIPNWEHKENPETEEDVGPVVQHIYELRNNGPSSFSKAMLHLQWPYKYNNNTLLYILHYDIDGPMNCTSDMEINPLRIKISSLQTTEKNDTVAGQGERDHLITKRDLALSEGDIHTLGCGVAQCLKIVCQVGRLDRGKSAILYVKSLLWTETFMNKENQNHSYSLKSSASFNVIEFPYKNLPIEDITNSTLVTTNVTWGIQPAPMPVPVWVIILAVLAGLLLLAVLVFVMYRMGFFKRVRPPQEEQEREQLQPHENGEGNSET
T1 chain 2: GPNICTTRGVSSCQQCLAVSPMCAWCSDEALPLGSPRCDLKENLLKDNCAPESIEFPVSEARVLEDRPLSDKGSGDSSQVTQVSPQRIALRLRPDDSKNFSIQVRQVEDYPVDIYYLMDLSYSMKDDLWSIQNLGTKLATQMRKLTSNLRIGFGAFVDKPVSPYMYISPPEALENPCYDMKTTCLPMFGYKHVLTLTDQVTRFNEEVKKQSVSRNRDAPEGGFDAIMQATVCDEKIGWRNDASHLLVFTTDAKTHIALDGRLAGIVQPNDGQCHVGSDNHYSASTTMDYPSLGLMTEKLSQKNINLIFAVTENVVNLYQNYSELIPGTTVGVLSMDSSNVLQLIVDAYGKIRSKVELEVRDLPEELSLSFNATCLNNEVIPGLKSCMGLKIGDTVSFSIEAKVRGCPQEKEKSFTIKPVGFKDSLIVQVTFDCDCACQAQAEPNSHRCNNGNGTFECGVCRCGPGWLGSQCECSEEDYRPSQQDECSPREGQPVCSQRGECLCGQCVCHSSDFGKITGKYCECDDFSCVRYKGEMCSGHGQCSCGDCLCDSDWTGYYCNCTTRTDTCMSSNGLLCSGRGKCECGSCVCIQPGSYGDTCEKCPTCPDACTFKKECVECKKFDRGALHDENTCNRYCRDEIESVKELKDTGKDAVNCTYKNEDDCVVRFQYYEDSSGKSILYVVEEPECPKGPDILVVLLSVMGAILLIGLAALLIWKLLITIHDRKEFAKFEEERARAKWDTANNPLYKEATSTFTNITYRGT

[4] = biological target: T1, αVβ3 integrin on human umbilical vein …; assay: radioligand binding; HUVEC pretreated with Mn2+ (20 μM) for 10 min, washed, then (7) 0-100 nM for 1 h at room temperature; gamma well counting; details: remark: other sources report otherwise

## vibronectin: classical adhesive protein
α V β 3 receptor
  Kd: 64 nM
  k off: 0.00021 s⁻¹

## fibrinogen
α V β 3 receptor
  Kd: 27 nM
  k off: 0.00098 s⁻¹

## N=C(N)NCCC[C@@H]1NC(=O)[C@H](CCCCNC(=O)COCCOCCn2cc(CNC(=O)CC[C@H](NC(=O)CCOCCOCCOCCOCCNC(=S)Nc3ccc(CC4CN(CC(=O)O)CCN(CC(=O)O)CCN4CC(=O)O)cc3)C(=O)NCc3cn(CCOCCOCC(=O)NCCCC[C@@H]4NC(=O)[C@@H](Cc5ccccc5)NC(=O)[C@H](CC(=O)O)NC(=O)CNC(=O)[C@H](CCCNC(=N)N)NC4=O)nn3)nn2)NC(=O)[C@@H](Cc2ccccc2)NC(=O)[C@H](CC(=O)O)NC(=O)CNC1=O (stereo partly shown) [compound 7]
[1]; feces collected at 90 min post injection, RP-HPLC
  activity in the feces: no detectable activity
[1]; urine collected at 90 min post injection, HPLC
  fraction remaining intact in the urine: more than 90%
[2]; intestines, read-out: uptake in intestines
  tissue uptake at […]: 4.62 ± 0.24 %ID/g
[2]; kidney cortex, read-out: uptake in kidney cortex
  tissue uptake at […]: 11.1 ± 2.2 %ID/g
[2]; kidney medulla, read-out: uptake in kidney medulla
  tissue uptake at […]: 3.66 ± 0.4 %ID/g
[2]; lungs, read-out: uptake in lungs
  tissue uptake at […]: 2.95 ± 0.43 %ID/g
[2]; spleen, read-out: uptake in spleen
  tissue uptake at […]: 2.25 ± 0.33 %ID/g

B1: FITC-PEG4-cRGD2 (8) (peptide)
chain: cyclo(RGDFK)
modifications: also: cyclic RGD dimer: each peptide via N3-PEG2 triazole on Glu bis-propargyl amide, PEG4, fluorescein (from FITC)
[3]
  increase of binding against HUVECs without Mn2+: 78%

B2: 64Cu-NOTA-PEG4-cRGD2 (7) (peptide)
chain: cyclo(RGDFK)
modifications: also: cyclic RGD dimer: each peptide via N3-PEG2 triazole on Glu bis-propargyl amide, PEG4, NOTA, 64Cu
[4]
  increase of binding against HUVECs without Mn2+: 78%
